Experimental data as given in patent US8309534B2, “Compositions comprising a GPR109 ligand for treating disorders of the digestive tract and/or cancer” (Medical College of Georgia Research Institute, Inc., priority 2007, dated 2012).
“Also recorded” adds a separate entry of the source.

Key:
[1] = tested on: GPR109A expression in human colon cancer cell lines; assay: GPR109A mRNA expression in colon cancer cell lines by semi-quantitative RT-PCR; type: cell-based; settings: 2 μg/ml, 72 h
Procedure: HPRT1 mRNA was used as an internal control. […] Steady-state levels of mRNAs for DNMT1, DNMT3a, DNMT3b, and HPRT1 were monitored in normal human colon tissues and in human colon cancer tissues by semi-quantitative RT-PCR. […] Three different colon cancer cell lines were treated with procainamide, a specific inhibitor of DNMT1, and the expression of GPR109A was monitored in cells treated with or without the inhibitor.

[2] = tested on: LPS-induced activation of NF-κB promoter in vector-transfected KM12L4 cells; assay: LPS-induced NF-κB promoter reporter in vector-transfected KM12L4 cells (no GPR109A); type: cell-based, human; settings: ligand 1 mM 8 h, LPS 100 ng/ml 4 h
Source text: (§1) The anti-inflammatory effect of butyrate was monitored in colonic cells by its ability to suppress LPS-induced activation of NF-κB promoter with luciferase as the reporter. The participation of SLC5A8 and GPR109A in mediating the effects of extracellular butyrate was differentiated first by using specific ligands. If SLC5A8 is involved in the process, the transporter-facilitated entry of butyrate followed by inhibition of histone deacetylases (HDACs) inside the cells would be responsible for the effects. If GPR109A is involved in the process, the activation of the receptor by extracellular butyrate would be responsible for the effects. […] In these experiments, cells were first transfected with the construct carrying the NF-κB-luciferase, pretreated with GPR109A ligands (1 mM) for 8 h and then exposed to LPS (100 ng/ml) for 4 h. Following the treatment, cell lysates were used to measure luciferase activity as a read-out for activation of NF-κB.
(§2) The cells were transfected with either empty vector or human GPR109A cDNA. […] We cloned the human GPR109A cDNA by RT-PCR using mRNA prepared from human colon, and subcloned the RT-PCR product into pcDNA vector under the control of the cytomegalovirus promoter. The insert was sequenced to confirm its molecular identity. […] The activation of the receptor was monitored by measuring the activity of a K^+-channel.

[3] = tested on: LPS-induced NF-κB promoter activity in KM12L4 cells with ectopic expression of GPR109A; assay: LPS-induced NF-κB promoter reporter in KM12L4 cells transfected with human GPR109A cDNA; type: cell-based; settings: ligand 1 mM 8 h, LPS 100 ng/ml 4 h
Source text: as §1, §2

[4] = tested on: bone marrow-derived dendritic cells; assay: Development of bone marrow-derived dendritic cells (FACS); type: cell-based; settings: mouse bone marrow cells, ligand 1 mM, 4 days
Procedure: In these experiments, mouse bone marrow cells were collected and cultured in the presence of various ligands (1 mM) for 4 days. Following this, FACS (fluorescence activated cell sorting) was used to identify the fraction of various immune cell types in the sample.

[5] = tested on: LPS-induced NF-κB promoter activity in HCT116 cells; settings: HCT116, no expression of GPR109A
Source text: as §1
(§3) Additionally, two different isogenic cell lines of the human colon cancer cell line HCT116, one with normal expression of the DNA methyltransferase I(DNMT1) and the other with deletion of the gene coding for the enzyme (HCT116-DNMT1^−/−) were used.

[6] = tested on: LPS-induced NF-κB promoter activity in HCT116-DNMT1−/− cells; settings: GPR109A expressed
Source text: as §1, §3

[7] = tested on: LPS-induced activation of NF-κB promoter in CCD841 cells; settings: ligand 1 mM 8 h, then LPS 100 ng/ml 4 h, luciferase
Source text: as §1

[8] = tested on: vector-transfected KM12L4 cells; settings: 0.5 mM, 24 h
[9] = tested on: Colon cancer cell line SW480; assay: Apoptosis of colon cancer cells with octanoate (propidium iodide FACS); type: cell-based; settings: human colon cancer cell line (SW480); varying concentrations, 24 or 48 h
Procedure: Colon cancer cell line SW480 was cultured in the presence of varying concentrations of octanoate for 24 or 48 h, and then cells were fixed in ethanol, stained with propidium iodide, and subjected to FACS analysis to determine the percent of cells undergoing apoptosis. Sub G0/1 cells were quantitated using Cell Quest program and values are expressed as mean+SEM.

[10] = tested on: human breast cancer cell line; assay: Apoptosis of human breast cancer cell line with octanoate; type: cell-based; settings: human breast cancer cell line expressing GPR109B
Source text: The GPR109B receptor isoform is unique to humans. Its expression is not reduced in cancer. Its ligand specificity is different from that of GPR109A. One of the ligands which has relatively high affinity for GPR109B is the medium-chain fatty acid octanoate. This ligand was used to see if this receptor isoform can be used to kill tumor cells. […] Two cancer cell lines, a human colon cancer cell line and a human breast cancer cell line were studied. Both these cell lines express GPR109B because the expression of this receptor isoform is not affected in cancer. […] Thus, another embodiment provides a method for treating cancer by administering to a subject an effective amount of a ligand for GPR109B to promote apoptosis in tumor cells optionally in combination with a second therapeutic agent. A preferred ligand is octanoate or a derivative thereof.

## Nc1ncn([C@@H]2O[C@H](CO)[C@@H](O)[C@H]2O)c(=O)n1 [5-azacytidine]
[1]
  effect on GPR109A expression: the expression of the gene is induced
[1]; listed as 5′-azacytidine
  effect on GPR109A expression: re-activates the expression of the receptor

## CC(C)n1nnc2cc(C(=O)O)ccc21 [IPBT, 1-isopropyl-benzotriazole-5-carboxylic acid]
[2]
  effect on LPS-induced activation of NF-κB promoter: did not have any effect
[3]
  effect on LPS-induced NF-κB promoter activity: did not have any effect

## CC(=O)O [acetate]
[4]
  effect on development of dendritic cells: had no effect

## CC1(c2ccccc2)OC(C(=O)O)=CC1=O (stereo not drawn) [acifran]
[2]
  effect on LPS-induced activation of NF-κB promoter: did not have any effect
[3]
  effect on LPS-induced NF-κB promoter activity: marked suppression
[5]
  effect on LPS-induced NF-κB promoter activity: none of these compounds had any significant effect
[6]
  effect on LPS-induced NF-κB promoter activity: suppressed LPS-induced promoter activity

## O=C(O)c1cccnc1 [nicotinate, nicotinic acid]
[7]
  effect on LPS-induced activation of NF-κB promoter: able to block LPS-induced activation of NF-κB promoter
[4]
  effect on development of dendritic cells: had no effect
[8]
  change in expression of genes involved in apoptosis and cell cycle: do not exhibit any change in the expression of various genes

## CCCCCCCC(=O)O [octanoate]
[9]
  apoptosis: induced apoptosis; also recorded: leads to apoptosis in a dose-dependent manner
[10]
  apoptosis: leads to apoptosis in a dose-dependent manner

## CCC(=O)O [propionate]
[4]
  effect on development of dendritic cells: able to block the development
